Assay results taken from patent US9883691B2, “Food and beverage products containing 1,3-propanediol and methods of modifying flavor release using 1,3-propanediol” (Kraft Foods Group Brands LLC, priority 2012, dated 2018).

Columns and labels:
[1] = PTR-MS headspace release at various flavor compound to 1,3-propanediol or PG ratios (Example 2); format: physicochemical; conditions: for release suppressed in the presence of 1,3-propanediol: 10% cut-off for significant difference, relative to PG; for Percent Suppression by 1,3-propanediol: (IZ−IPG)/IPG×100
Procedure: The compounds listed below in Table 3 were added together to provide a liquid flavoring to analyze the role, if any, of the amount of 1,3-propanediol on flavor release. […] The amount of each flavor compound in the beverage was held constant at 8 ppm except furfuryl mercaptan was included at 1.6 ppm while the amount of propylene glycol or 1,3-propanediol varied.
The percent suppression was calculated using the following formula: (IZ−IPG)/IPG×100, where I is peak height, “Z” is 1,3-propanediol and “PG” is propylene glycol.

[2] = PTR-MS headspace release with various non-aqueous liquids (diols) at 0.05:100 (Example 3); format: physicochemical; conditions: ratio 0.05:100; for PTR-MS headspace release in 1,3-butanediol: non-aqueous liquid 1,3-butanediol; for PTR-MS headspace release in 1,3-butanediol / PTR-MS headspace release in 1,3-propanediol / PTR-MS headspace release in 1,4-butanediol / PTR-MS headspace release in 1,7-heptanediol / PTR-MS headspace release in Propylene glycol: diluted in water; for PTR-MS headspace release in 1,3-propanediol: non-aqueous liquid 1,3-propanediol; for PTR-MS headspace release in 1,4-butanediol: non-aqueous liquid 1,4-butanediol; for PTR-MS headspace release in 1,7-heptanediol: non-aqueous liquid 1,7-heptanediol; for PTR-MS headspace release in Propylene glycol: non-aqueous liquid propylene glycol
Procedure: […]. The flavoring was then diluted in water for analysis. The final concentration of each compound was held constant at 8 ppm except furfuryl mercaptan was included at 1.6 ppm to maintain a constant flavor level in the resulting beverage while the non-aqueous liquid varied but the ratio of each compound to non-aqueous liquid was held constant at 0.05:100. A variety of non-aqueous liquids were evaluated, including 1,4-butandiol; 1,7-heptandiol; 1,3-butandiol, propylene glycol, and 1,3-propanediol.
Samples were analyzed by PTR-MS as described in Example 1.
Percent suppression was calculated by the following formula: (I1-3-diol−Ialternate diol)/Ialternate diol×100.

[3] = not marked (est); cited from earlier work
[4] = ratio 0.005:100, negative = suppressed vs PG

SMILES	release suppressed in the presence of 1,3-propanediol [1]	effect of 1,3-propanediol on release ([1]; flavor/1,3-propanediol ratio of 0.05:100 and 5:100)	Percent Suppression by 1,3-propanediol [1, 4] [%]	Percent Suppression by 1,3-propanediol ([1]; ratio 0.05:100) [%]	Percent Suppression by 1,3-propanediol ([1]; ratio 5:100) [%]	Percent Suppression by 1,3-propanediol ([1]; ratio 15:100) [%]	PTR-MS headspace release in 1,3-butanediol [2]	PTR-MS headspace release in 1,3-propanediol [2]	PTR-MS headspace release in 1,4-butanediol [2]	PTR-MS headspace release in 1,7-heptanediol [2]	PTR-MS headspace release in Propylene glycol [2]	Percent suppression by 1,3-butanediol relative to 1,4-butanediol [2] [%]	logP (o/w) [3]	effect of 1,3-propanediol on release ([1]; flavor/1,3-propanediol ratio of 0.005:100, 0.05:100, and 5:100)	effect of 1,3-propanediol on release ([1]; ratio 0.005:100)
O=Cc1ccccc1 [Benzaldehyde]	suppressed	significant suppression effect	−0.5	−90.3	−40.6	−16.2	250.0	13.20	354.0	357.5	136.25	−41.6			
CC=O [Acetaldehyde]	suppressed		−22.1	−37.3	−57.4	64.5	157.0	104.00	196.5	206.5	165.85	−25.2	−0.16	significant suppression effect	still suppressed
CCCC(=O)OCC [Ethyl butyrate]			3.2	14.9	−21.8	−3.3	141.5	46.20	239.3	223.5	40.20	−69.10			
